{"source": "ChEMBL document CHEMBL1201862", "about": "“PubChem BioAssay data set” (2004)", "key": {"[1]": {"tested_on": "BJ", "experiment": "BJ-TERT fibroblast viability loss – cell-based, RAS-independent, luminescence, dose response (AID 1933)", "assay_type": "functional", "conditions": "Homo sapiens"}, "[2]": {"tested_on": "BJ", "experiment": "cells", "assay_type": "functional, cell-based", "conditions": "Homo sapiens"}, "[3]": {"target": "Luciferin 4-monooxygenase (Photinus pyralis, UniProt P08659)", "sequence (P08659 whole entry)": "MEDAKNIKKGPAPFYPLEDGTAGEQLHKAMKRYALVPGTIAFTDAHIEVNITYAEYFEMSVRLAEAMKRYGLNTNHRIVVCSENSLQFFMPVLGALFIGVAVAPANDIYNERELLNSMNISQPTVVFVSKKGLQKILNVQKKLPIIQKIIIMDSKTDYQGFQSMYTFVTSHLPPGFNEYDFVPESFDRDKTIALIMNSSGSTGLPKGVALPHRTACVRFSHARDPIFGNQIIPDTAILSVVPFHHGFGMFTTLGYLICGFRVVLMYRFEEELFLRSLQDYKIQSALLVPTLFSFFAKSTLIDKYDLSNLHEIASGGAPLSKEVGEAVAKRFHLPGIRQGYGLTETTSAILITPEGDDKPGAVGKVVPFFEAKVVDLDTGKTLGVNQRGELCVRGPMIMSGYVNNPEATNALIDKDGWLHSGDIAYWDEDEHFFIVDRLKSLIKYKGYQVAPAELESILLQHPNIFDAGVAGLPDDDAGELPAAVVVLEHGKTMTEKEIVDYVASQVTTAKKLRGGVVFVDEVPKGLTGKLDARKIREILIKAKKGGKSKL", "experiment": "inhibition of purified Photinus pyralis luciferase – biochemical, luminescence, dose response (AID 1891)"}, "[4]": {"experiment": "Luminescence Cell-Based Dose Confirmation HTS to Identify Inhibitors of Platelet Dense Granule Release. [Related pubchem assays: 1663 (Primary HTS), 1678 (Summary of Project)]", "assay_type": "functional"}, "[5]": {"tested_on": "BJ", "experiment": "BJ-TERT-LT-ST fibroblast viability loss – cell-based, RAS-independent, luminescence, dose response (AID 1935);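 further: BJ fibroblasts immortalized with TERT plus LT and ST oncogenes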", "assay_type": "functional", "conditions": "Homo sapiens"}, "[6]": {"experiment": "DRD fibroblast viability loss – cell-based, non-viral oncogenic, luminescence, dose response (AID 1934)", "assay_type": "functional", "conditions": "Homo sapiens"}, "[7]": {"target": "T1, Caspase-6 (Homo sapiens, UniProt P55212)", "T1 sequence (P55212 whole entry)": "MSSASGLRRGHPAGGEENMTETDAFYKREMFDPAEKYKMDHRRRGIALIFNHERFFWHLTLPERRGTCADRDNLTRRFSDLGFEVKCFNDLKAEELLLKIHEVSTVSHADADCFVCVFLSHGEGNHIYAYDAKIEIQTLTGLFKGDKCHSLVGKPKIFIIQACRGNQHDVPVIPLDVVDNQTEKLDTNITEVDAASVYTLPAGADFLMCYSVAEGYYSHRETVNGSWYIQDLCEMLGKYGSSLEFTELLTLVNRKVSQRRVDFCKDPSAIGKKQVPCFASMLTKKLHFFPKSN", "experiment": "inhibition of CASP6 peptide cleavage – biochemical, VEID-R110 fluorescence, cherry-pick, dose response (AID 720632)"}, "[8]": {"tested_on": "HEK293", "experiment": "EBV LMP1 TES2 canonical NF-kB signalling blockers – cell-based, HEK293, luciferase, cherry-pick, dose response (AID 588343)", "assay_type": "functional", "conditions": "Homo sapiens"}, "[9]": {"target": "SWI/SNF-related matrix-associated actin-dependent regulator of chromatin subfamily A member 2 (Homo sapiens, UniProt P51531)", "sequence (P51531 whole entry)": "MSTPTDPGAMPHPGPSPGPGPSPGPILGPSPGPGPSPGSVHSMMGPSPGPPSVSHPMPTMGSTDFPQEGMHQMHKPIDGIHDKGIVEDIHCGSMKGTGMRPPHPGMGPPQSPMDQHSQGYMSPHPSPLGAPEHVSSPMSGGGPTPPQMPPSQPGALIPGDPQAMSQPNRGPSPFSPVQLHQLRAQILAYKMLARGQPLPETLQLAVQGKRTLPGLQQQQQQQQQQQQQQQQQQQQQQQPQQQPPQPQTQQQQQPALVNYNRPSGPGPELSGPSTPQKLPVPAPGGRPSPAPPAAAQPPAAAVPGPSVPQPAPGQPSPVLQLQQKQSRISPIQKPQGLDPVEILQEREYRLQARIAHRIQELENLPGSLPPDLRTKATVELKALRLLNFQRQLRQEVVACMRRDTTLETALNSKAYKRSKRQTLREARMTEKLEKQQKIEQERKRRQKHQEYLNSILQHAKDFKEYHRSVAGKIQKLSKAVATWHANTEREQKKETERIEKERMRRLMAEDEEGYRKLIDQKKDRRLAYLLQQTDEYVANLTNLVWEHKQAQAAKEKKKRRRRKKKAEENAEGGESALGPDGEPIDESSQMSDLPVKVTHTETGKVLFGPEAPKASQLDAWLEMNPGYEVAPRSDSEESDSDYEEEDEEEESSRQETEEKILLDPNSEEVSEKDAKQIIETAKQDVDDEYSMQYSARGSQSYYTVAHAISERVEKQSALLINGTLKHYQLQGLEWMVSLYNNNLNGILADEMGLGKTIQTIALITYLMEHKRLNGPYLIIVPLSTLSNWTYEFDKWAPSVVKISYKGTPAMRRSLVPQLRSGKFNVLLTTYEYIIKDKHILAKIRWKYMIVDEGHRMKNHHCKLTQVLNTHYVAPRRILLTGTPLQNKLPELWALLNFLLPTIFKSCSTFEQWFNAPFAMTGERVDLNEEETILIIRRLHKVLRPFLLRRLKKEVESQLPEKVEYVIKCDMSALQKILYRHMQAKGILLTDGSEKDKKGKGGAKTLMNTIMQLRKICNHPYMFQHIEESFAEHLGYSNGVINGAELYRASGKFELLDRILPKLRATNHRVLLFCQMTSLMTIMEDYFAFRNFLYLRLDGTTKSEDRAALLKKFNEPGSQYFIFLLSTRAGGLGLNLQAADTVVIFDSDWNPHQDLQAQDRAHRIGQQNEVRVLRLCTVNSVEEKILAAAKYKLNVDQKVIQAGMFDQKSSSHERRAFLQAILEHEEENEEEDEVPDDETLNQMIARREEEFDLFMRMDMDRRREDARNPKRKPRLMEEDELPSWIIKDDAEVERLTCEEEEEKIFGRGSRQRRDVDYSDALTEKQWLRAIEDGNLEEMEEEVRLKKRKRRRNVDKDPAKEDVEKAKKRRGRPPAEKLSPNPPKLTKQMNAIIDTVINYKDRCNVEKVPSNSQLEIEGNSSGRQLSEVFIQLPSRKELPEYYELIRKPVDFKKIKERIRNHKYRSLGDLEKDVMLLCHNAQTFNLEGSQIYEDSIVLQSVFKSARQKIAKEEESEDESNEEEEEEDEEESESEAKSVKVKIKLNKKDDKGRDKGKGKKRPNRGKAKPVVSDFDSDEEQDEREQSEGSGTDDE", "experiment": "Luminescence-based cell-based high throughput dose response assay to identify activators of the function of SWI/SNF related, matrix associated, actin dependent regulator of chromatin, subfamily a, member 2 (SMARCA2, BRM).", "assay_type": "functional"}, "[10]": {"experiment": "Counterscreen for activators of the function of SWI/SNF related, matrix associated, actin dependent regulator of chromatin, subfamily a, member 2 (SMARCA2, BRM): Luminescence-based cell-based high throughput dose response assay to identify non-selective compounds using the VP16 reporter assay.", "assay_type": "functional"}, "[11]": {"experiment": "HGIII-sPLA2 enzyme inhibition potency – biochemical, QFRET, IC50, dose response (AID 743457);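 further: green fluorescence rise as the enzyme cleaves BODIPY PC-A2 in liposomes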"}, "[12]": {"target": "T2, Fructose-bisphosphate aldolase (Mycobacterium tuberculosis, UniProt P9WQA3)", "T2 sequence (P9WQA3 whole entry)": "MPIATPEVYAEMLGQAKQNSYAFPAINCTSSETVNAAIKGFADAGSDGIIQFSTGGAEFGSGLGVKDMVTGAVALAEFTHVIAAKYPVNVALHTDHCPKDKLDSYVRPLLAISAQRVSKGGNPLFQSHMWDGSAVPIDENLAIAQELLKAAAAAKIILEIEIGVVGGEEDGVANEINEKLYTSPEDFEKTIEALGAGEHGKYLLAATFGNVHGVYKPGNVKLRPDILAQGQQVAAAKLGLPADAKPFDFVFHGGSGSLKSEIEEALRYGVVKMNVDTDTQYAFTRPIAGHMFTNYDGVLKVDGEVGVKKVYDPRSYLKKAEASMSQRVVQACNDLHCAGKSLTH", "experiment": "Fluorescence-based biochemical high throughput dose response assay for inhibitors of the fructose-bisphosphate aldolase (FBA) of M. tuberculosis.", "assay_type": "functional"}, "[13]": {"experiment": "Trypanosoma cruzi growth suppression in host cells – NIH3T3 host cells, beta-gal luminescence, confirmation (AID 2044);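 further: intracellular parasites grown in NIH/3T3 mouse fibroblasts as host cells; luminescent beta-galactosidase reporter signal from transgenic T. cruzi replicating inside host cells; inhibitors lower the luminescence signal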", "assay_type": "functional, cell-based"}, "[14]": {"experiment": "NIH3T3 cell viability loss – ATP luminescence, mouse fibroblasts, counter-screen, dose response (AID 2010);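 further: cells exposed to compound for about 90 hours before reading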", "assay_type": "functional, cell-based"}, "[15]": {"experiment": "blockers of bursicon-stimulated LGR2 cAMP reporter – cell-based, HEK293, CRE-luciferase reporter, cherry pick, set 2, dose response (AID 743343);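 further: transfected cells were stimulated with diluted bursicon conditioned medium after compound addition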", "assay_type": "functional"}, "[16]": {"experiment": "blockade of melanocortin 4 receptor signaling – cell-based, plate reader, cherry pick, counter-screen for LGR2 antagonist project, dose response (AID 743444);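 further: transfected HEK 293 cells stimulated with alpha-MSH peptide; potency of inhibitors of the alpha-MSH evoked signal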", "assay_type": "functional"}, "[17]": {"experiment": "viability loss in HEK293 cells – cell-based, plate reader, cherry-picked samples, cytotoxicity control, dose response (AID 743446)", "assay_type": "functional"}}, "note": "Calls of active or inactive are those of the source."}
{"smiles": "Cn1c(N=Nc2ccccc2)nc2ccccc21", "values": [{"measurement": "EC50", "setting": "[1]", "result": "6.48 µM (active)"}, {"measurement": "EC50", "setting": "[2]", "result": "4.78 µM (inconclusive)"}, {"measurement": "EC50", "setting": "[3]", "result": "1.5 µM (active)"}, {"measurement": "EC50", "setting": "[4]", "result": "1.78 µM (active)"}, {"measurement": "EC50", "setting": "[5]", "result": "9.38 µM (active)"}, {"measurement": "EC50", "setting": "[6]", "result": "6.84 µM (inconclusive)"}, {"measurement": "AC50", "setting": "[7]", "result": "38.1 µM (active)"}]}
{"smiles": "C=CCn1c(C)c(C(C)=O)c(N2CCN(C(c3ccccc3)c3ccccc3)CC2)nc1=S", "values": [{"measurement": "AC50", "setting": "[8]", "result": "63.8 µM (active)"}]}
{"smiles": "COc1cc(OC)cc(-c2nc3ccccc3s2)c1", "values": [{"measurement": "EC50", "setting": "[9]", "result": "> 91.1 µM (inactive)"}, {"measurement": "EC50", "setting": "[10]", "result": "> 91.1 µM (inactive)"}]}
{"smiles": "CC(C)(C)c1csc(NNC(=O)c2ccc(Cl)cc2)n1", "values": [{"measurement": "IC50", "setting": "[11]", "result": "> 122 µM (inactive)"}]}
{"smiles": "COc1ccc2nc3c(O)n(Cc4ccncc4)cnc-3c2c1", "values": [{"measurement": "IC50", "setting": "[12]", "result": "0.97 µM (active)"}]}
{"smiles": "O=C(Oc1c(CN2CCOCC2)cc(Cl)c2cccnc12)c1ccccc1F", "values": [{"measurement": "EC50", "setting": "[13]", "result": "1.65 µM (active)"}, {"measurement": "EC50", "setting": "[14]", "result": "8.05 µM (active)"}, {"measurement": "EC50", "setting": "[9]", "result": "> 91.2 µM (inactive)"}, {"measurement": "EC50", "setting": "[10]", "result": "> 91.2 µM (inactive)"}]}
{"smiles": "CCS(=O)(=O)N1N=C(c2ccc(NS(C)(=O)=O)cc2)CC1c1ccccc1", "note": "(configuration not stated)", "values": [{"measurement": "IC50", "setting": "[12]", "result": "> 0.37 µM (active)"}]}
{"smiles": "COC(=O)/C=C/C(=O)Nc1cccc(C(F)(F)F)c1", "values": [{"measurement": "AC50", "setting": "[8]", "result": "11.1 µM (active)"}]}
{"smiles": "CSc1nc2ccc(NC(=O)c3ccccn3)cc2s1", "values": [{"measurement": "AC50", "setting": "[15]", "result": "4.16 µM (active)"}, {"measurement": "AC50", "setting": "[16]", "result": "5.41 µM (active)"}, {"measurement": "AC50", "setting": "[17]", "result": "> 52 µM (inactive)"}]}
{"smiles": "O=C(NNc1nc(-c2ccccc2)cs1)c1ccco1", "values": [{"measurement": "IC50", "setting": "[11]", "result": "> 122 µM (inactive)"}]}
